Several values for one entry are separate records, joined by “and”; a condition that tells them apart may be missing. Equal values may be shown once. Toxic doses and inconclusive results are not listed. No stated cut-off is given here; in the data, active means T/C of 150% or more; inactive means T/C below 125%.
Test system: L1210 leukemia ip in BDF1 mice, survival T/C
Test: NCI In Vivo Anticancer Drug Screen. Data for tumor model L1210 Leukemia (intraperitoneal) in B6D2F1 (BDF1) mice
Conditions: endpoint: mean survival time, higher = longer survival
How it was run: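 Survival endpoint. Drug-treated group vs vehicle group, expressed as T divided by C. Tumor passaged by transplantation.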

[1] = dose: 100.0 mg/kg/injection, schedule: Q04DX003 (ip), vehicle: saline
[2] = dose: 200.0 mg/kg/injection, schedule: Q04DX003 (ip), vehicle: saline
[3] = dose: 400.0 mg/kg/injection, schedule: Q04DX003 (ip), vehicle: saline
[4] = dose: 100.0 mg/kg/injection, schedule: Q01DX009 (ip), vehicle: Klucel (hydroxypropylcellulose) (HPC)
[5] = dose: 100.0 mg/kg/injection, schedule: Q04DX003 (ip), vehicle: Klucel (hydroxypropylcellulose) (HPC)
[6] = dose: 200.0 mg/kg/injection, schedule: Q01DX009 (ip), vehicle: Klucel (hydroxypropylcellulose) (HPC)
[7] = dose: 200.0 mg/kg/injection, schedule: Q04DX003 (ip), vehicle: Klucel (hydroxypropylcellulose) (HPC)
[8] = dose: 400.0 mg/kg/injection, schedule: Q01DX009 (ip), vehicle: Klucel (hydroxypropylcellulose) (HPC)
[9] = dose: 400.0 mg/kg/injection, schedule: Q04DX003 (ip), vehicle: Klucel (hydroxypropylcellulose) (HPC)
[10] = dose: 200.0 mg/kg/injection, schedule: Q04DX003 (ip), vehicle: saline with Tween-80
[11] = dose: 100.0 mg/kg/injection, schedule: Q01DX005 (ip), vehicle: saline
[12] = dose: 200.0 mg/kg/injection, schedule: Q01DX005 (ip), vehicle: saline
[13] = dose: 100.0 mg/kg/injection, schedule: Q01DX001 (ip), vehicle: saline
[14] = dose: 200.0 mg/kg/injection, schedule: Q01DX001 (ip), vehicle: saline
[15] = dose: 400.0 mg/kg/injection, schedule: Q01DX001 (ip), vehicle: saline
[16] = dose: 100.0 mg/kg/injection, schedule: Q01DX001 (ip), vehicle: carboxymethylcellulose (CMC)
[17] = dose: 200.0 mg/kg/injection, schedule: Q01DX001 (ip), vehicle: carboxymethylcellulose (CMC)
[18] = dose: 400.0 mg/kg/injection, schedule: Q01DX001 (ip), vehicle: carboxymethylcellulose (CMC)
[19] = dose: 100.0 mg/kg/injection, schedule: Q01DX009 (ip), vehicle: saline with Tween-80
[20] = dose: 200.0 mg/kg/injection, schedule: Q01DX009 (ip), vehicle: saline with Tween-80
[21] = dose: 100.0 mg/kg/injection, schedule: Q04DX002 (ip), vehicle: Klucel (hydroxypropylcellulose) (HPC)
[22] = dose: 200.0 mg/kg/injection, schedule: Q04DX002 (ip), vehicle: Klucel (hydroxypropylcellulose) (HPC)
[23] = dose: 400.0 mg/kg/injection, schedule: Q04DX002 (ip), vehicle: Klucel (hydroxypropylcellulose) (HPC)

Measured: T/C

OC(c1ccccc1)c1cccc(Br)c1 (stereo not drawn)
inactive: dose: 100.0 mg/kg/injection, schedule: Q01DX009 (ip), vehicle: acetone 104 % of control | [1] 96 % of control | dose: 200.0 mg/kg/injection, schedule: Q01DX009 (ip), vehicle: acetone 107 % of control | [2] 105 % of control | dose: 400.0 mg/kg/injection, schedule: Q01DX009 (ip), vehicle: acetone 100 % of control | [3] 89 % of control

CCOc1ccccc1NC(=S)NC(=O)c1cccc([N+](=O)[O-])c1
inactive: [4] 100 % of control | [5] 98 % of control | [6] 96 % of control | [7] 98 % of control | [8] 96 % of control | [9] 100 % of control

ON(C(=Nc1cccc2ccccc12)c1ccccc1)c1ccccc1
inactive: dose: 75.0 mg/kg/injection, schedule: Q01DX001 (ip), vehicle: carboxymethylcellulose (CMC) 97 % of control | dose: 150.0 mg/kg/injection, schedule: Q01DX001 (ip), vehicle: carboxymethylcellulose (CMC) 92 % of control | dose: 300.0 mg/kg/injection, schedule: Q01DX001 (ip), vehicle: carboxymethylcellulose (CMC) 98 % of control

CCC(C)C(CO)c1ccccc1 (stereo not drawn)
inactive: dose: 100.0 mg/kg/injection, schedule: Q04DX003 (ip), vehicle: saline with Tween-80 93 % of control | [10] 91 % of control

N#C/C(N)=C(/C#N)N=Cc1ccccc1
inactive: dose: 100.0 mg/kg/injection, schedule: Q01DX001 (ip), vehicle: Klucel (hydroxypropylcellulose) (HPC) 97 % of control | dose: 200.0 mg/kg/injection, schedule: Q01DX001 (ip), vehicle: Klucel (hydroxypropylcellulose) (HPC) 98 % of control | dose: 400.0 mg/kg/injection, schedule: Q01DX001 (ip), vehicle: Klucel (hydroxypropylcellulose) (HPC) 98 % of control

C=CCc1c[nH]c(=O)[nH]c1=O
inactive: dose: 50.0 mg/kg/injection, schedule: Q04DX003 (ip), vehicle: Klucel (hydroxypropylcellulose) (HPC) 100 % of control | [5] 108 % of control and 91 % of control | [7] 97 % of control and 100 % of control | [9] 90 % of control

CCCCCCNC(=O)Nc1ccccc1Cl
inactive: [4] 97 % of control | [6] 100 % of control | [8] 105 % of control

c1ccc2cc3nc4ccccc4nc3cc2c1
inactive: dose: 100.0 mg/kg/injection, schedule: Q01DX001 (ip), vehicle: acetone 92 % of control | [1] 108 % of control | dose: 200.0 mg/kg/injection, schedule: Q01DX001 (ip), vehicle: acetone 97 % of control | [2] 101 % of control | dose: 400.0 mg/kg/injection, schedule: Q01DX001 (ip), vehicle: acetone 86 % of control | [3] 111 % of control

Nc1ccn(C2OC(COC3CCCCO3)C(OC3CCCCO3)C2OC2CCCCO2)c(=O)n1 (stereo not drawn)
inactive: dose: 50.0 mg/kg/injection, schedule: Q01DX009 (ip), vehicle: saline 95 % of control | [11] 110 % of control | dose: 100.0 mg/kg/injection, schedule: Q01DX009 (ip), vehicle: saline 104 % of control | [12] 94 % of control | dose: 200.0 mg/kg/injection, schedule: Q01DX009 (ip), vehicle: saline 101 % of control

[Br][Ga]([Br])[Br]
inactive: [13] 100 % of control | [14] 101 % of control | [15] 103 % of control

CN1CCCC(OC(=O)c2cc3ccccc3s2)C1 (stereo not drawn)
inactive: [16] 101 % of control | [17] 106 % of control | [18] 98 % of control

NS(=O)(=O)c1ccc(Cl)c([N+](=O)[O-])c1
inactive: dose: 100.0 mg/kg/injection, schedule: Q04DX002 (ip), vehicle: saline with Tween-80 98 % of control | dose: 200.0 mg/kg/injection, schedule: Q04DX002 (ip), vehicle: saline with Tween-80 91 % of control | dose: 400.0 mg/kg/injection, schedule: Q04DX002 (ip), vehicle: saline with Tween-80 91 % of control

Cc1ccc(/C(=C/c2ccc([N+](=O)[O-])cc2)C(=O)Nc2ccc(S(=O)(=O)F)cc2)cc1
inactive: [19] 94 % of control | [20] 89 % of control | dose: 400.0 mg/kg/injection, schedule: Q01DX009 (ip), vehicle: saline with Tween-80 86 % of control

CNC(=O)Nc1c(C)cccc1C
inactive: [4] 93 % of control | [5] 106 % of control | [6] 93 % of control | [7] 101 % of control | [8] 97 % of control | [9] 98 % of control

O=C(Nc1ccc(Br)cc1)c1cc(Br)ccc1O
inactive: dose: 50.0 mg/kg/injection, schedule: Q01DX001 (ip), vehicle: carboxymethylcellulose (CMC) 98 % of control | [16] 102 % of control | [21] 103 % of control | [17] 89 % of control | [22] 92 % of control | [18] 94 % of control | [23] 95 % of control

O=C1c2ccccc2C(=O)N1c1cc(O)cc(O)c1
inactive: dose: 100.0 mg/kg/injection, schedule: Q01DX009 (ip), vehicle: water 95 % of control | dose: 100.0 mg/kg/injection, schedule: Q04DX003 (ip), vehicle: water 96 % of control | dose: 200.0 mg/kg/injection, schedule: Q01DX009 (ip), vehicle: water 95 % of control | dose: 200.0 mg/kg/injection, schedule: Q04DX003 (ip), vehicle: water 94 % of control | dose: 400.0 mg/kg/injection, schedule: Q01DX009 (ip), vehicle: water 101 % of control | dose: 400.0 mg/kg/injection, schedule: Q04DX003 (ip), vehicle: water 96 % of control

CC1(C)OC2COC(c3[nH]nc(C(N)=O)c3Br)C2O1 (stereo not drawn)
inactive: [11] 104 % of control | [12] 96 % of control

CC(C)=NC(=O)NO.[Cl][Co][Cl]
inactive: dose: 9.4 mg/kg/injection, schedule: Q04DX003 (ip), vehicle: saline 100 % of control | dose: 18.75 mg/kg/injection, schedule: Q04DX003 (ip), vehicle: saline 107 % of control | dose: 37.5 mg/kg/injection, schedule: Q04DX003 (ip), vehicle: saline 107 % of control | dose: 75.0 mg/kg/injection, schedule: Q01DX001 (ip), vehicle: saline 103 % of control

CN(C)c1ccc(/C(=N\O)C(=O)O)cc1
inactive: dose: 50.0 mg/kg/injection, schedule: Q01DX001 (ip), vehicle: saline 107 % of control | [13] 105 % of control | [14] 100 % of control

OC1c2ccccc2C(c2ccccc2)C1c1ccccc1 (stereo not drawn)
inactive: [10] 87 % of control | dose: 400.0 mg/kg/injection, schedule: Q04DX003 (ip), vehicle: saline with Tween-80 90 % of control

COC(=O)c1cc(=O)c2c(=O)[nH]c(=O)[nH]c2[nH]1
inactive: [5] 101 % of control | [7] 95 % of control | [9] 100 % of control

c1ccc(-c2nnc(-c3ccccn3)s2)nc1
inactive: dose: 50.0 mg/kg/injection, schedule: Q01DX001 (ip), vehicle: water 108 % of control | dose: 100.0 mg/kg/injection, schedule: Q01DX001 (ip), vehicle: water 103 % of control | dose: 200.0 mg/kg/injection, schedule: Q01DX001 (ip), vehicle: water 106 % of control | dose: 400.0 mg/kg/injection, schedule: Q01DX001 (ip), vehicle: water 111 % of control

O=C(Nc1ccccc1-c1ccccc1)c1ccc(Cl)cc1Cl
inactive: [21] 104 % of control | [22] 93 % of control | [23] 101 % of control

CC1=NN(c2ccccc2)C(=O)C1N=Nc1ccccc1S(=O)(=O)O (stereo not drawn)
inactive: [13] 96 % of control | [14] 94 % of control | [15] 102 % of control

CCOC(=O)c1[nH]c(C)c(CCCC(=O)O)c1C
inactive: dose: 75.0 mg/kg/injection, schedule: Q01DX001 (ip), vehicle: acetone 102 % of control | dose: 150.0 mg/kg/injection, schedule: Q01DX001 (ip), vehicle: acetone 104 % of control

COc1ccc(C)cc1NC(=O)NC(C)=O
inactive: dose: 50.0 mg/kg/injection, schedule: Q01DX009 (ip), vehicle: saline with Tween-80 92 % of control | [19] 88 % of control | [20] 95 % of control
